Assay: Forced swimming of mice in a running water pool after oral administration; blood lactic acid, blood sugar and free fatty acid levels
Assay type: in vivo, mice (male; ddY)
Procedure: This experiment was carried out according to the method disclosed in Jpn. J. Phys. Fitness Sports Med., 1995, 44:225-238. More specifically, mice (male; ddY) (6-week-old; 5 animals per group) were fasted at room temperature for 16 hours, followed by oral administration of a 1.8% by weight aqueous solution containing the composition VAAM or HVAAM as set forth in Table 1 or trehalose; an aqueous solution containing 1.8% by weight of VAAM and 2% by weight of trehalose; or an aqueous solution containing 1.8% by weight of VAAM analogue as set forth in Table 1 and 2% by weight of trehalose in an amount of 37.5 μl/g body weight and thereafter giving the mice a rest at room temperature for 30 minutes. Then the mice were forced to swim in a running water pool (a water tank having a diameter of 32 cm and a depth of 30 cm, which was filled with water maintained at 35° C. and in which the water was circulated at a rate of 8 m/min using a circulator) for 30 minutes. After forcing the mice to swim, they were inspected for the lactic acid level in the blood, the blood sugar (glucose) level and the free fatty acid level in the blood.
The lactic acid level in the blood was determined using a clinical reagent available from Sigma Company, by measuring absorbance at 340 nm due to NADH, each molecule of which was formed when lactic acid was converted into pyruvic acid because of the action of lactic acid dehydrogenase. The free fatty acid level in the serum was determined by centrifuging the collected blood and then quantitatively analyzing the fatty acids present in the supernatant. More specifically, the hydrogen peroxide formed by the action of acyl-CoA synthetic enzyme and acyl-CoA oxidase was reacted with a peroxidase, followed by determination of the absorbance at 550 nm due to the stained 3-methyl-N-ethyl-N-(2-hydroxyethyl)aniline and 4-aminoantipyrine to thus determine the free fatty acid level.

With `OC[C@H]1O[C@H](O[C@H]2O[C@H](CO)[C@@H](O)[C@H](O)[C@H]2O)[C@H](O)[C@@H](O)[C@@H]1O` [Tre, α, α-trehalose] the “Blood Sugar Level” value (blood glucose, mice fasted 16 h, oral 37.5 μl/g body weight, 30 min rest, after 30 min forced swimming) was 83.14 mg/dL, the “Lactic Acid Level” value (blood, mice fasted 16 h, oral 37.5 μl/g body weight, 30 min rest, after 30 min forced swimming) was 46.69 mg/dL and the NEFA (free fatty acid in serum, mice fasted 16 h, oral 37.5 μl/g body weight, 30 min rest, after 30 min forced swimming) was 0.97 mEq/l. The “free fatty acid level in the blood compared with the group to which 1.8% VAAM was administered” value (mice, after 30 min swimming, FIG. 3, p<0.05) was “significantly higher” and the “lactic acid level in the blood compared with the group to which VAAM was administered” value (mice, after load of swimming over 30 minutes, FIG. 1) was “did not show any significant difference”.
